According to ChEMBL document CHEMBL6182863, “Discovery of novel rigid STING PROTAC degraders as potential therapeutics for acute kidney injury” (Eur J Med Chem, 2025):
In brackets after ≈: the same amount, converted by molar mass. Activity calls are given as the source filed them. The calls are words filed in the database; no cut-off is given here.

Experiments:
[1] = target: von Hippel-Lindau disease tumor suppressor/Stimulator of interferon genes protein (Homo sapiens, UniProt P40337+Q86WV6); assay: PROTAC activity at VHL/STING (unknown origin); format: protein assay
[2] = target: Protein cereblon/Stimulator of interferon genes protein (Homo sapiens, UniProt Q96SW2+Q86WV6); assay: PROTAC activity at CRBN/STING in human THP-1 cells assessed as induction of STING degradation at 5 uM measured after 24 hrs by Western blotting analysis relative to control; format: cell-based
[3] = Water solubility of the compound at 2 mg by HPLC analysis; format: physicochemical
[4] = Metabolic stability in human liver microsomes assessed as half life; format: ADME, Microsome
[5] = Metabolic stability in human liver microsomes assessed as intrinsic clearance per gram of protein; format: ADME, Microsome
[6] = Metabolic stability in human liver microsomes assessed as metabolic factor relative to control; format: ADME, Microsome

Protein cereblon/Stimulator of interferon genes protein, sequence (Q86WV6 whole entry, looked up): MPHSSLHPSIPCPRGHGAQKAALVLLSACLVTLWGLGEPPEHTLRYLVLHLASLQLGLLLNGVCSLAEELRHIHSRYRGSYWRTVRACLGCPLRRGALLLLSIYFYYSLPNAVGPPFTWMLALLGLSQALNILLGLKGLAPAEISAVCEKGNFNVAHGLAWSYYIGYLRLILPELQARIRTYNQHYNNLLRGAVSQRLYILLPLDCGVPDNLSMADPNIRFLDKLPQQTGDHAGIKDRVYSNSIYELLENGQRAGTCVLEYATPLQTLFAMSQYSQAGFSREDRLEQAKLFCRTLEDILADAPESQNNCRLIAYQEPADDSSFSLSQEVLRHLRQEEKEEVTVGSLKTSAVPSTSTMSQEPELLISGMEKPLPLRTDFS
Protein cereblon/Stimulator of interferon genes protein, sequence (Q96SW2 whole entry, looked up): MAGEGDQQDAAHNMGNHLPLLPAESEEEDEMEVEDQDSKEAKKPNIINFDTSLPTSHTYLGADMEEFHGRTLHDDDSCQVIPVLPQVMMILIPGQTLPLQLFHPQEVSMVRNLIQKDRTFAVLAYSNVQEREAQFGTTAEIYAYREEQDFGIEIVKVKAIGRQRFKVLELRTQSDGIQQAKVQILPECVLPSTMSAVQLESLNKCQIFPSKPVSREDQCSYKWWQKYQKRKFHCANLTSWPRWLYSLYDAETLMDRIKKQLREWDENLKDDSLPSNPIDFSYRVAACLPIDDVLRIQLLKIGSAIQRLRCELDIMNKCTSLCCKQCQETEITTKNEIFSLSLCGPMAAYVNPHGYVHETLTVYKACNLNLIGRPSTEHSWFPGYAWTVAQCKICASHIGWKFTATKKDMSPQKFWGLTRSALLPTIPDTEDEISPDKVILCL
von Hippel-Lindau disease tumor suppressor/Stimulator of interferon genes protein, sequence (P40337 whole entry): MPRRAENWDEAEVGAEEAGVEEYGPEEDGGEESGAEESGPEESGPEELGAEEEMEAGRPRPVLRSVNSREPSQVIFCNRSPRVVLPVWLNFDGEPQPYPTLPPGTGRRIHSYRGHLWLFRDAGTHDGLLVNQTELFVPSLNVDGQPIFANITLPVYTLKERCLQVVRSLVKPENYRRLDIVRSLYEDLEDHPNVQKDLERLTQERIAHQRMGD
von Hippel-Lindau disease tumor suppressor/Stimulator of interferon genes protein, sequence (Q86WV6 whole entry): as the sequence (Q86WV6 whole entry, looked up) above

SMILES	Activity [2]	further results
CCn1nc(C)cc1C(=O)Nc1nc2cc(C(=O)NCCCCCCCCC(=O)N[C@@H](C(=O)N3C[C@H](O)C[C@H]3C(=O)NCc3ccc(-c4scnc4C)cc3)C(C)(C)C)cc(OC)c2n1C/C=C/Cn1c(NC(=O)c2cc(C)nn2CC)nc2cc(C(N)=O)cc(OCCCN3CCOCC3)c21		DC50 [1]: 227 nM
Cc1ncsc1-c1ccc(CNC(=O)[C@@H]2C[C@@H](O)CN2C(=O)[C@@H](NC(=O)CCC(=O)NCCCNC(=O)c2cccc(S(=O)(=O)n3cc(C(=O)NCCCCCC(=O)Oc4ccc(NC(=O)c5ccc(-c6ccccc6)cc5)cc4NS(=O)(=O)c4ccc(F)cc4)ccc3=O)c2)C(C)(C)C)cc1		DC50 [1]: 530 nM
O=C1CCC(N2C(=O)c3cccc(N4CCN(CC5CN(C(=O)CCCC(=O)Nc6ccc(NC(=O)c7ccc([N+](=O)[O-])o7)cc6)C5)CC4)c3C2=O)C(=O)N1 (stereo not drawn)	inactive	
O=C(/C=C/C(=O)N1CCN(CC2CCN(c3ccc4c(c3)C(=O)N(C3CCC(=O)NC3=O)C4=O)C2)CC1)Nc1ccc(NC(=O)c2ccc([N+](=O)[O-])o2)cc1 (stereo not drawn)	73.6%	
O=C(/C=C/C(=O)N1CCN(CC2CCN(c3cccc4c3C(=O)N(C3CCC(=O)NC3=O)C4=O)CC2)CC1)Nc1ccc(NC(=O)c2ccc([N+](=O)[O-])o2)cc1 (stereo not drawn)	43.6%	
O=C1CCC(N2C(=O)c3cccc(N4CCN(CC5CN(C(=O)CCC(=O)Nc6ccc(NC(=O)c7ccc([N+](=O)[O-])o7)cc6)C5)CC4)c3C2=O)C(=O)N1 (stereo not drawn)	40.7%	
O=C1CCC(N2C(=O)c3cccc(N4CCN(CC5CCN(C(=O)COCC(=O)Nc6ccc(NC(=O)c7ccc([N+](=O)[O-])o7)cc6)CC5)CC4)c3C2=O)C(=O)N1 (stereo not drawn)	32.6%	
O=C(/C=C/C(=O)N1CCN(C2CCN(c3cccc4c3C(=O)N(C3CCC(=O)NC3=O)C4=O)C2)CC1)Nc1ccc(NC(=O)c2ccc([N+](=O)[O-])o2)cc1 (stereo not drawn)	58%	solubility [3]: 6.098 µg/mL (≈ 8.25 µM)
O=C1CCC(N2C(=O)c3cccc(N4CCC(N5CCN(C(=O)CCC(=O)Nc6ccc(NC(=O)c7ccc([N+](=O)[O-])o7)cc6)CC5)C4)c3C2=O)C(=O)N1 (stereo not drawn)	inactive	
O=C1CCC(N2C(=O)c3cccc(N4CCC(N5CCN(C(=O)COCC(=O)Nc6ccc(NC(=O)c7ccc([N+](=O)[O-])o7)cc6)CC5)C4)c3C2=O)C(=O)N1 (stereo not drawn)	inactive	
O=C(/C=C/C(=O)N1CC(N2CCN(c3cccc4c3C(=O)N(C3CCC(=O)NC3=O)C4=O)CC2)C1)Nc1ccc(NC(=O)c2ccc([N+](=O)[O-])o2)cc1 (stereo not drawn)	30.3%	
O=C(/C=C/C(=O)N1CCC(N2CCN(c3cccc4c3C(=O)N(C3CCC(=O)NC3=O)C4=O)CC2)CC1)Nc1ccc(NC(=O)c2ccc([N+](=O)[O-])o2)cc1 (stereo not drawn)	inactive	
O=C1CCC(N2C(=O)c3cccc(N4CCN(CC5CCN(C(=O)CCC(=O)Nc6ccc(NC(=O)c7ccc([N+](=O)[O-])o7)cc6)CC5)CC4)c3C2=O)C(=O)N1 (stereo not drawn)	inactive	
O=C(/C=C/C(=O)N1CCC(CN2CCN(c3ccc4c(c3)C(=O)N(C3CCC(=O)NC3=O)C4=O)CC2)CC1)Nc1ccc(NC(=O)c2ccc([N+](=O)[O-])o2)cc1 (stereo not drawn)	52.3%	
O=C(/C=C/C(=O)N1CCN(CC2CCCN2c2ccc3c(c2)C(=O)N(C2CCC(=O)NC2=O)C3=O)CC1)Nc1ccc(NC(=O)c2ccc([N+](=O)[O-])o2)cc1 (stereo not drawn)	72.3%	
O=C(/C=C/C(=O)N1CCN(C2CCN(c3ccc4c(c3)C(=O)N(C3CCC(=O)NC3=O)C4=O)C2)CC1)Nc1ccc(NC(=O)c2ccc([N+](=O)[O-])o2)cc1 (stereo not drawn)	inactive	
O=C(/C=C/C(=O)N1CC(CN2CCN(c3ccc4c(c3)C(=O)N(C3CCC(=O)NC3=O)C4=O)CC2)C1)Nc1ccc(NC(=O)c2ccc([N+](=O)[O-])o2)cc1 (stereo not drawn)	inactive	
O=C(/C=C/C(=O)N1CCN(CC2CCN(c3ccc4c(c3)C(=O)N(C3CCC(=O)NC3=O)C4=O)CC2)CC1)Nc1ccc(NC(=O)c2ccc([N+](=O)[O-])o2)cc1 (stereo not drawn)	63.6%	
O=C(/C=C/C(=O)N1CCC(CN2CCN(c3cccc4c3C(=O)N(C3CCC(=O)NC3=O)C4=O)CC2)CC1)Nc1ccc(NC(=O)c2ccc([N+](=O)[O-])o2)cc1 (stereo not drawn)	71.1%	solubility [3]: 1.562 µg/mL (≈ 2.04 µM)
O=C1CCC(N2C(=O)c3cccc(N4CCC(CN5CCN(C(=O)CCC(=O)Nc6ccc(NC(=O)c7ccc([N+](=O)[O-])o7)cc6)CC5)C4)c3C2=O)C(=O)N1 (stereo not drawn)	44.7%	
O=C(/C=C/C(=O)N1CCN(c2cccc3c2C(=O)N(C2CCC(=O)NC2=O)C3=O)CC1)Nc1ccc(NC(=O)c2ccc([N+](=O)[O-])o2)cc1 (stereo not drawn)	20.3%	
O=C1CCC(N2C(=O)c3cccc(N4CCC(CN5CCN(C(=O)CCCC(=O)Nc6ccc(NC(=O)c7ccc([N+](=O)[O-])o7)cc6)CC5)C4)c3C2=O)C(=O)N1 (stereo not drawn)	36.3%	
O=C1CCC(N2C(=O)c3cccc(N4CCN(CC5CN(C(=O)COCC(=O)Nc6ccc(NC(=O)c7ccc([N+](=O)[O-])o7)cc6)C5)CC4)c3C2=O)C(=O)N1 (stereo not drawn)	inactive	
O=C(/C=C/C(=O)Nc1ccc(NC(=O)c2ccc([N+](=O)[O-])o2)cc1)NCCCCCCNc1cccc2c1C(=O)N(C1CCC(=O)NC1=O)C2=O (stereo not drawn)	59.2%	half-life [4]: 1.41 min; CLint [5]: 1490 mL/min/g; Activity [6]: 1.3%; solubility [3]: 0.854 µg/mL (≈ 1.22 µM)
O=C(/C=C/C(=O)N1CC(CN2CCN(c3cccc4c3C(=O)N(C3CCC(=O)NC3=O)C4=O)CC2)C1)Nc1ccc(NC(=O)c2ccc([N+](=O)[O-])o2)cc1 (stereo not drawn)	43.6%	solubility [3]: 6.485 µg/mL (≈ 8.78 µM)
O=C(/C=C/C(=O)N1CCN(CC2CCCN2c2cccc3c2C(=O)N(C2CCC(=O)NC2=O)C3=O)CC1)Nc1ccc(NC(=O)c2ccc([N+](=O)[O-])o2)cc1 (stereo not drawn)	77.7%	solubility [3]: 2.872 µg/mL (≈ 3.82 µM)
O=C1CCC(N2C(=O)c3cccc(N4CCC(CN5CCN(C(=O)COCC(=O)Nc6ccc(NC(=O)c7ccc([N+](=O)[O-])o7)cc6)CC5)C4)c3C2=O)C(=O)N1 (stereo not drawn)	inactive	
O=C(/C=C/C(=O)N1CCN(C2CCN(c3cccc4c3C(=O)N(C3CCC(=O)NC3=O)C4=O)CC2)CC1)Nc1ccc(NC(=O)c2ccc([N+](=O)[O-])o2)cc1 (stereo not drawn)	25.3%	
O=C1CCC(N2C(=O)c3cccc(N4CCC(N5CCN(C(=O)CCCC(=O)Nc6ccc(NC(=O)c7ccc([N+](=O)[O-])o7)cc6)CC5)C4)c3C2=O)C(=O)N1 (stereo not drawn)	40.5%	
O=C1CCC(N2C(=O)c3cccc(N4CCN(CC5CCN(C(=O)CCCC(=O)Nc6ccc(NC(=O)c7ccc([N+](=O)[O-])o7)cc6)CC5)CC4)c3C2=O)C(=O)N1 (stereo not drawn)	inactive	
